Measurements reported in US20170313746A1, “Peptides Useful For Treating Cancer” (priority 2014, published 2017).
“Also recorded” adds a separate entry of the source. Non-standard residues stand in square brackets, D forms with d. Residues, ends and D or L forms follow the SMILES beside them. Phe(4-guanidino) = N=C(N)Nc1ccc(C[C@H](N)C(=O)O)cc1; Abu(4-SO3H) = N[C@@H](CCS(=O)(=O)O)C(=O)O

Columns and labels:
[1] = tested on: NCI-H460 human non-small cell lung cancer cells; details: cited from earlier work
[2] = tested on: Lactate Dehydrogenase A [LDHA]; assay: LDH activity assay on lysates of treated NCI-H460 cells; details: higher concentrations, particularly later time point
Protocol: Therefore a BCA assay was conducted to estimate the total amount of protein present in each LDH assay lysate and this was used to normalise the enzyme activity data. As an indication of cell viability, an Alamar blue assay was also carried out at both timepoints, to serve as an additional point of reference.
1) NCI-H460 cells were grown in Ham's F12 media supplemented with 10% FBS. 2) Cells were harvested and seeded into 96-well plates at either 500 cells/well (for the 96 h timepoint) or 5000 cells/well for the 24 h timepoint. […] 6) At the end of the assay (24 or 96 h), Alamar blue 10% (v/v) was added to one set of plates, incubated for a further 4 hours, and fluorescent product detected using the BMG FLUOstar plate reader. […] 10) LDH activity was measured in the cleared lysates using an LDH activity kit (Abeam, ab102526). 11) After preparation of the LDH activity assay reactions, according to the manufacturer's instructions, absorbance at 450 nm was measured at the initial time to determine (A450)initial 12) Further absorbance readings were taken at 3 minute intervals for up to 15 minutes.
14) The change in measurement from Tinitial to Tfinal for each sample was calculated: 11A450=(A450)final−(A450)initial 15) The NADH standard curve was used to interpolate the 11A450 for each sample to determine the amount of NADH generated by the kinase assay between Tinitial and Tfinal (B). […]

[3] = tested on: NCI-H460 human non-small-cell lung cancer cells; assay: Cell killing alone or in combination with 2-deoxyglucose, alamarBlue; type: cell-based; details: 3.125 mmol 2-DOG
Protocol: NCI-H460 human non-small-cell lung cancer cells were contacted with HILR-025 or HILR-D-07 alone or in combination with 3.125 mmol 2-DOG and cell survival was determined using AlamaBlue® cell viability reagent (Life Technologies, Inc.) in accordance with the manufacturer's instructions.

NCI-H460 cells [4] = assay: HILR-001 with or without 30 nM Olaparib, alamarBlue and CellTiter-Glo time course; type: cell-based, human
Protocol: Four concentrations of HILR-001 were tested in the presence or absence of 30 nM Olaparib; At each time point cell viability was measured by two assay readouts, alamarBlue® and CellTiter-Glo. Conversion of alamarBlue® to a fluorescent product serves as a readout of the metabolic activity of cells, whereas CellTiter-Glo is based on quantification of the ATP present.
1) NCI-H460 cells were grown in Ham's F12 media supplemented with 10% FBS. 2) Cells were harvested and seeded into 96-well plates at 500 cells/well. 3) HILR-001 was made up from a 10 mM stock solution and added directly to cells in doubling dilutions starting at 200 μM. Olaparib was made up from a 10 mM stock solution and added directly to cells at 30 nM. The total final DMSO concentration was 0.25%. 4) Cells were grown with compound for 24, 48, 72 or 96 hours at 37° C. 5% CO2 in a humidified atmosphere. 5) AlamarBlue® 10% (v/v) was then added and incubated for a further 4 hours, and fluorescent product detected using the BMG FLUOstar plate reader. 6) On duplicate plates the media was removed from the cells, CellTiter-Glo was diluted in PBS (1:10) and 100 μl added to the cells. 7) Plates were mixed on an orbital shaker for 2 minutes and incubated for a further 10 minutes at room temperature. Luminescent signal was then measured using the BMG FLUOstar plate reader.

human cancer cell lines = details: cited from earlier work
NCI-H460 cells [5] = assay: NCI-H460 cell viability, alamarBlue (resazurin), 96 hours; type: cell-based, human; details: FIG. 13
Protocol: 1) NCI-H460 cells were grown in Ham's F12 media supplemented with 10% FBS. 2) Cells were harvested and seeded into 96-well plates at 500 cells/well. 3) Compounds were made up from stock solutions and added directly to cells in doubling dilutions starting at 200 μM. Final DMSO concentration was 0.2%. 4) Cells were grown with compound for 96 hours at 37° C. 5% CO2 in a humidified atmosphere. 5) A resazurin dye composition (AlamarBlue® cell viability reagent (Life Technologies, Inc.)) 10% (v/v) was then added and incubated for a further 4 hours, and fluorescent product detected using the BMG FLUOstar plate reader. 6) Media only background readings were subtracted before data were analysed using a 4-parameter logistic equation in GraphPad Prism. The IC50 of HILR-30 was determined as 6 μM.
1) NCI-H460 cells were grown in Ham's F12 media supplemented with 10% FBS. 2) Cells were harvested and seeded into 96-well plates at 500 cells/well. 3) Olaparib was made up from stock solutions and added directly to cells in semi-log dilutions starting at 30 μM. Final DMSO concentration was 0.3%. […] 5) AlamarBlue® cell viability reagent (Life Technologies, Inc.) 10% (v/v) was then added and incubated for a further 4 hours, and fluorescent product detected using the BMG FLUOstar plate reader. 6) Data were analysed using a 4-parameter logistic equation in GraphPad Prism.

[6] = 30 nM Olaparib with 50 μM HILR-001

In the case of `CC(C)C[C@@H]1NC(=O)[C@H](C)NC(=O)[C@H](C(C)C)NC(=O)[C@@H]2CCCN2C(=O)[C@H](CCCNC(=N)N)NC(=O)[C@@H]2CCCN2C(=O)CNC(=O)[C@H](CCCNC(=N)N)NC(=O)[C@@H]2CCCN2C(=O)[C@H](CC(C)C)NC(=O)[C@H](C)NC(=O)[C@H](CC(C)C)NC(=O)[C@H](CCCCN)NC(=O)[C@H](CC(C)C)NC(=O)[C@H](C)NC(=O)[C@H](CC(C)C)NC(=O)[C@H](CCCCN)NC1=O` [HILR-001] (HELM PEPTIDE1{P.R.G.P.R.P.V.A.L.K.L.A.L.K.L.A.L}$PEPTIDE1,PEPTIDE1,1:R1-17:R2$$$V2.0), the “killing NCI-H460 human non-small cell lung cancer cells” value [1] is listed as “(“THR54”) ACTIVE”.

In the case of `CC(C)[C@@H]1NC(=O)[C@@H]2CCCN2C(=O)[C@H](CCCNC(=N)N)NC(=O)[C@@H]2CCCN2C(=O)CNC(=O)[C@H](CCCNC(=N)N)NC(=O)[C@@H]2CCCN2C(=O)[C@H](Cc2c[nH]c3ccccc23)NC(=O)[C@H](Cc2c[nH]c3ccccc23)NC(=O)[C@H](CCCNC(=N)N)NC(=O)[C@H](CCCNC(=N)N)NC(=O)[C@H](Cc2c[nH]c3ccccc23)NC(=O)[C@H](Cc2c[nH]c3ccccc23)NC(=O)[C@H](CCCNC(=N)N)NC(=O)[C@H](CCCNC(=N)N)NC(=O)[C@H](Cc2c[nH]c3ccccc23)NC(=O)[C@H](Cc2c[nH]c3ccccc23)NC1=O` [HILR-025] (HELM PEPTIDE1{P.R.G.P.R.P.V.W.W.R.R.W.W.R.R.W.W}$PEPTIDE1,PEPTIDE1,1:R1-17:R2$$$V2.0), the “cell death during LDH study” value [2] is reported as “Significant cell death” and the “cell killing ability with co-administration of 2-DOG” value [3] is reported as “enhanced”.

With `CC(C)[C@@H]1NC(=O)[C@@H]2CCCN2C(=O)[C@H](CCCNC(=N)N)NC(=O)[C@@H]2CCCN2C(=O)CNC(=O)[C@H](CCCNC(=N)N)NC(=O)[C@@H]2CCCN2C(=O)[C@H](Cc2c[nH]c3ccccc23)NC(=O)[C@H](Cc2c[nH]c3ccccc23)NC(=O)[C@H](Cc2ccc(NC(=N)N)cc2)NC(=O)[C@H](Cc2ccc(NC(=N)N)cc2)NC(=O)[C@H](Cc2c[nH]c3ccccc23)NC(=O)[C@H](Cc2c[nH]c3ccccc23)NC(=O)[C@H](Cc2ccc(NC(=N)N)cc2)NC(=O)[C@H](Cc2ccc(NC(=N)N)cc2)NC(=O)[C@H](Cc2c[nH]c3ccccc23)NC(=O)[C@H](Cc2c[nH]c3ccccc23)NC1=O` [HILR-030] (cyclo(PRGPRPVWW[Phe(4-guanidino)][Phe(4-guanidino)]WW[Phe(4-guanidino)][Phe(4-guanidino)]WW)) the “cell death during LDH study” value [2] was “Significant cell death”.

For `O=C(c1cc(Cc2n[nH]c(=O)c3ccccc23)ccc1F)N1CCN(C(=O)C2CC2)CC1` [Olaparib, 4-[3-(4-cyclopropanecarbonylpiperazine-1-carbonyl)-4-fluorobenzyl]-2H-phthalazin-1-one], the “ATP levels (CellTiter-Glo)” value (NCI-H460 cells [4]; [6]) was “partially restored; also recorded: partially reverses”, the “HILR-001-mediated cell death (alamarBlue)” value (NCI-H460 cells [4]; [6]) was “reversed” and the “ATP levels or cancer cell death” value (NCI-H460 cells [4]; 30 nM Olaparib with 100 μM and 200 μM HILR-001) was “did not affect”.

In the case of “Cyc-[AAAGGGPRGPRPGGGAAA] (cyclic; Cyclic peptide; (1)..(18) cyclic peptide) [SEQ ID NO: 6]”, the “activity of PRGPRP cyclic peptides with non-amphiphilic backbone” value (“activity … with non-amphiphilic backbone” below) (human cancer cell lines) is given as “INACTIVE”.

For “Cyc-[AAGPGGPRGPRPGGPGAA] (cyclic; cyclic peptide; (1)..(18) cyclic peptide) [SEQ ID NO: 9]”, the “activity … with non-amphiphilic backbone” value (human cancer cell lines) is given as “INACTIVE”.

In the case of “Cyc-[GGGGGGPRGPRPGGGGGG] (cyclic; cyclic peptide; (1)..(18) cyclic peptide) [SEQ ID NO: 7]”, the “activity … with non-amphiphilic backbone” value (human cancer cell lines) is listed as “INACTIVE”.

With “Cyc-[Gly-Asp-Glu-Val-NMeAsp-Sarc-Val-Trp-Trp-Arg-Arg-Trp-Trp-Arg-Arg-Trp-Trp] [HILR-D-01]” the “cell-killing of NCI-H460 cells” value (NCI-H460 cells [5]) was “weak but significant dose-related cell-killing; also recorded: mild but significant killing”.

In the case of “Cyc-[PRGPRPVKLALKLALKFP] (cyclic; cyclic peptide; (1)..(18) cyclic peptide) [THR53]”, the “killing NCI-H460 human non-small cell lung cancer cells” value [1] is listed as “(“THR5”) ACTIVE”.

In the case of “Cyc-[PRGPRPVKLALKLALKLAL] (cyclic; cyclic peptide; (1)..(19) cyclic peptide) [THR52]”, the “killing NCI-H460 human non-small cell lung cancer cells” value [1] is given as “(“THR52”) INACTIVE”.

In the case of “cyclo-[Pro-Hca-Gly-Pro-Hca-Pro-Val-Trp-Trp-Gpa-Gpa-Trp-Trp-Gpa-Gpa-Trp-Trp] (cyclo(P[Abu(4-SO3H)]GP[Abu(4-SO3H)]PVWW[Phe(4-guanidino)][Phe(4-guanidino)]WW[Phe(4-guanidino)][Phe(4-guanidino)]WW)) [HILR-D-07]”, the “cell killing ability with co-administration of 2-DOG” value [3] is reported as “enhanced”.
